Data: patent US9682928B2 (NeuroPro Therapeutics, Inc., priority 2009, dated 2017)
Several values for one entry are separate records, joined by “and”; a condition that tells them apart may be missing. Equal values may be shown once.

Columns and labels:
Male Rj: NMRI mice = test: Formalin paw test (late phase) in the mouse; type: in vivo; conditions: for Anti-inflammatory and analgesic effects in formalin paw test (FIG. 16): 50, 250, 500 μmole/kg
Procedure: The method described herein detects analgesic/anti-inflammatory activity, generally used to test compounds for pain relief, in particular diabetic neuropathy or nociceptive neuropathy. See Wheeler-Aceto, et al. (1991) Psychopharmacology 104: 35-44.
Mice were given an intraplantar injection of 5% formalin (25 μl) into the posterior left paw. This treatment induces paw licking in control animals. Mice were briefly observed at 1 minute intervals between 15 and 50 minutes after the injection of formalin and the number of occasions that the mice were observed licking the injected paw was recorded. There were 10 mice per group and the test was performed “blind.”
The experiment included 11 groups. Data was analyzed by comparing treated groups with vehicle control using unpaired Mann-Whitney U tests.
Gabapentin (100 mg/kg i.p.) administered under the same experimental conditions, was used as reference substance. The experiment included several groups. Data was analyzed by comparing treated groups with vehicle control using unpaired Mann-Whitney U tests.

adult mice (C57/B16) = test: Mesial temporal lobe epilepsy model (mice), hippocampal discharges; type: in vivo, mouse; conditions: 50 mg/kg for NTP-2014 and NTP-2026; 150 mg/kg for NTP-2024, NTP-2006, NTP-1007, NTP-1003
Procedure: Antiepileptic protocol: Up to eight adult mice (C57/B16) are injected with kainate (1 nmol in 50 nl) and are implanted with a bipolar electrode in the dorsal hippocampus using stereotaxic techniques under general anesthesia. […] Drug conditions are counter-balanced, the animals being used as their own controls. Digital EEG recordings are performed in freely moving animals for 20 min pre-injection and 80 min post-injection. The effects of the injected compound are compared versus vehicle injections and reference period (pre-dose). Upon completion of the experiment, standard histological analysis are performed to verify electrode location, cell losses in CA1, CA3 and hilus, as well as dentate gyrus dispersion. Only animals with all characteristics of MTLE are used in data analysis. […] The results below are normalized to the pre-dose condition for each of the treatment group including DMSO and saline vehicle controls. Doses of test article compounds were 50 mg/kg for NTP-2014 and NTP-2026 and 150 mg/kg for NTP-2024, NTP-2006, NTP-1007, and NTP-1003. Therefore the bumetanide, furosemide, piretanide, azosemide, and torsemide esters and amide analogs described herein may be used in therapeutic methods to treat seizures.

Na+K+Cl− co-transporter = target: T1, Na+K+Cl− co-transporter (Rattus norvegicus, UniProt E9PTX9); test: Na+K+Cl− cotransporter assay, 86Rb uptake in A7r5 cells; type: cell-based; conditions: 10 minutes at 37° C.
T1 construct: endogenous in cells; host or cells: A7r5 cells
T1 sequence (E9PTX9 1-1203): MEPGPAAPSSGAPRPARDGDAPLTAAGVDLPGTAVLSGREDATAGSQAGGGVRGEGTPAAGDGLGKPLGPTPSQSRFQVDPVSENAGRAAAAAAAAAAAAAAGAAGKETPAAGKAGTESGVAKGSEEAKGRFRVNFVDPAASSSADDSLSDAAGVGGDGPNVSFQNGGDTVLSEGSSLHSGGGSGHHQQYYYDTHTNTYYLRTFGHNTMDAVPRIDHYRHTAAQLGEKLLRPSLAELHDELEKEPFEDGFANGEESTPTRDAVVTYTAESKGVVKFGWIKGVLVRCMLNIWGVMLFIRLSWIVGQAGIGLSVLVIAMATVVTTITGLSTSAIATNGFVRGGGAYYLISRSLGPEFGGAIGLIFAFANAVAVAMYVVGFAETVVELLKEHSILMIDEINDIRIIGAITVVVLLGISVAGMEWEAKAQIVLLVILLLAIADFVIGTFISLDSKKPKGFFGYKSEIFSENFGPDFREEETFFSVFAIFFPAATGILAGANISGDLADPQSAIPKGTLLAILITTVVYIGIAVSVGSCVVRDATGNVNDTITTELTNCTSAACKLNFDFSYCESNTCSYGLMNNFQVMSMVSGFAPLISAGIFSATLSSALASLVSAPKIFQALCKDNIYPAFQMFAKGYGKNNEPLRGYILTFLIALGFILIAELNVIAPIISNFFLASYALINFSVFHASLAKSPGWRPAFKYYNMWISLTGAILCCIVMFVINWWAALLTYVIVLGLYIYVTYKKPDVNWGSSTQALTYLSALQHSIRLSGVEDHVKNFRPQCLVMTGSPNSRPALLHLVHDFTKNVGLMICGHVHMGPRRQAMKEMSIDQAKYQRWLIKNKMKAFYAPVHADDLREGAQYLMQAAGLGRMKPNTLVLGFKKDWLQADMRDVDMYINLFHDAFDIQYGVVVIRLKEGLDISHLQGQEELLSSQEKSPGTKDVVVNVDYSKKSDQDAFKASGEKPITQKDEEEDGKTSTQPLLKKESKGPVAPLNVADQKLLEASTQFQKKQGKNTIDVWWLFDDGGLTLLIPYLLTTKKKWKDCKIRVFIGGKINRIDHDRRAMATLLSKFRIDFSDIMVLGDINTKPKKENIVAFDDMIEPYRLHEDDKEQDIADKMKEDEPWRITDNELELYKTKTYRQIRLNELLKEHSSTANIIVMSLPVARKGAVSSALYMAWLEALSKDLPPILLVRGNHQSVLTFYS
Procedure: Na^+K^+Cl^− co-transporter activity was measured in vitro in A7r5 cells by measuring their uptake of ^86Rb (0.2 μCi) in 10 minutes at 37° C. as detected by scintillation counting. See Chassande, et al. (1988) “The Na^+/K^+/Cl^− Cotransport in C6 glioma cells. Properties and role in volume regulation.” Eur. J. Biochem. 171: 425433.

[1] = Brain levels in rat following IP administration; type: in vivo; conditions: NTP-2006 100 mg/kg IP, PBx pretreated
[2] = Blood levels in rat following IP administration; type: in vivo
[3] = target: T2, α1β3γ2 GABAA receptor isoform (Homo sapiens, UniProt P14867+P18507+P28472); test: Whole-cell patch clamp, transfected HEK-293T cells; type: cell-based, rat or human; conditions: FIG. 36
T2 construct: expressed in transfected cells; host or cells: HEK-293T, transient transfection
Procedure: The addition of GABA to […] activates the recombinant expressed GABAA receptors, creating an ion movement through the ion channel in the GABAA receptor. The electrical current generated by the movement of chloride ions into the cells can be quantified.
HEK-293T cells were transiently transfected with rat or human GABAA receptor subunits. Whole-cell patch clamp recording was performed at −50 mV unless otherwise indicated. Test compounds was diluted from a freshly made stock in DMSO, GABA was prepared from a frozen stock. For each experiment GABA or GABA+a test compound was applied for 5 seconds, and the electrical current generated by the movement of chloride ions into the cells was measured and recorded as a trace of current versus time.
Compounds described herein (e.g., NTP-2014) were tested at high and low GABA concentrations against multiple GABAA receptor isoforms (e.g., α1β3γ2, α2β3 γ2, α3β3γ2, α3β3γ2, α4β3γ2, α5β3γ2, α6β3γ2). […] NTP-2014 inhibits the currents in the parasynaptic α4 GABAA receptor isoform in GABAergic interneurons. […]

[4] = i.p. 30 minutes before the test, 50 μmol/kg (NTP-2006 23.9, NTP-2024 21.7, NTP-1007 19.3, NTP-2014 21, NTP-2026 23.1 mg/kg)
[5] = i.p., 250 μmol/kg (NTP-2006 119, NTP-2024 108, NTP-1007 96.5, NTP-2014 105, NTP-2026 116 mg/kg)
[6] = i.p., 500 μmol/kg (NTP-2006 239, NTP-2024 217, NTP-1007 193, NTP-2014 210, NTP-2026 231 mg/kg)

T2 sequence (P14867 28-456): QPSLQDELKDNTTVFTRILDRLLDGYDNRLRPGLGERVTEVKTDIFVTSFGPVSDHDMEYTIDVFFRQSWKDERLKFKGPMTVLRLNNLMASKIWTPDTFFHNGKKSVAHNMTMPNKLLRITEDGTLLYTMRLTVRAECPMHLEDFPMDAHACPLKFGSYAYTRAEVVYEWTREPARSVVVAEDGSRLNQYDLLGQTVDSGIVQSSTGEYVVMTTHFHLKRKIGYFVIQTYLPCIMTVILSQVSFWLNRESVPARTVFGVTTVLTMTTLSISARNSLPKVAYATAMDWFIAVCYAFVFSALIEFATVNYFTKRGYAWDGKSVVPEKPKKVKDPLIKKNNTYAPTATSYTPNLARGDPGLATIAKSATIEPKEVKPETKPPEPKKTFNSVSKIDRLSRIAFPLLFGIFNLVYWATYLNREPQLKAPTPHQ
T2 sequence (P28472 26-473): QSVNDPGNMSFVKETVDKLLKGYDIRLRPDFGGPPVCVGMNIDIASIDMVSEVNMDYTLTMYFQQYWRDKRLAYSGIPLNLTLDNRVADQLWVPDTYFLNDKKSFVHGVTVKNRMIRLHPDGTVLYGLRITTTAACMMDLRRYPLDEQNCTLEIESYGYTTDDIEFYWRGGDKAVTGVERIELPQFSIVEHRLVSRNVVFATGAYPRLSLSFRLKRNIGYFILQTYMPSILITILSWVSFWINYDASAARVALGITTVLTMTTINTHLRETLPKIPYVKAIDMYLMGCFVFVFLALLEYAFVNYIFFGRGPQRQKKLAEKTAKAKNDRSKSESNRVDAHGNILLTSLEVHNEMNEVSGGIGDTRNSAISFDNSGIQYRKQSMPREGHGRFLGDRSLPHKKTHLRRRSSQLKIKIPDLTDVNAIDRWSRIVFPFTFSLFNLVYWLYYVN
T2 sequence (P18507 40-475): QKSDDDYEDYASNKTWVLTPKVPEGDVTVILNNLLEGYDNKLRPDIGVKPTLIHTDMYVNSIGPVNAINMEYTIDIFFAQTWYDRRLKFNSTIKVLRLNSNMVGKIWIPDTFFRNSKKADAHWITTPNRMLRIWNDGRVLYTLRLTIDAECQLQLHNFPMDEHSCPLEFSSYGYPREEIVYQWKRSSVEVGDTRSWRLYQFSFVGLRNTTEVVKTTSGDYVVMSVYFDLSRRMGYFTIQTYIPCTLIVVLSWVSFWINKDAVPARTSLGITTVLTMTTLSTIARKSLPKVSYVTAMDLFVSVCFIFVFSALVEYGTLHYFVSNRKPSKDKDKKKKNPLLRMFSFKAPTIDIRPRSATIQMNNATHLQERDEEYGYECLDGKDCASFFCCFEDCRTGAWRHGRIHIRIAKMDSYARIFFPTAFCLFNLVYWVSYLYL

SMILES | Licking Score % Pain Decrease (Male Rj: NMRI mice; 50 μmol/kg i.p.) | Licking Score % Pain Decrease (Male Rj: NMRI mice; 250 μmol/kg i.p.) | Licking Score % Pain Decrease (Male Rj: NMRI mice; 500 μmol/kg i.p.) | Anti-inflammatory and analgesic effects in formalin paw test (FIG. 16) (Male Rj: NMRI mice) | Licking Score (15 to 50 minutes post-formalin injection) % Change from Control (Male Rj: NMRI mice; [4]) | Licking Score (15 to 50 minutes post-formalin injection) % Change from Control (Male Rj: NMRI mice; [5]) | Licking Score (15 to 50 minutes post-formalin injection) % Change from Control (Male Rj: NMRI mice; [6]) | Cumulative duration of hippocampal discharges (adult mice (C57/B16)) | Number of hippocampal discharges (adult mice (C57/B16)) | Effect on inhibitory currents in α1 subunit containing GABAA receptors [3] | also measured
CCN(CC)C(=O)c1cc(S(N)(=O)=O)c(Cl)cc1NCc1ccco1 [NTP-1007, N,N-Diethyl 5-Aminosulfonyl-4-chloro-2-[(2-furanylmethyl)amino]benzamide] | 9% | 13% | 66% | show anti-inflammatory and analgesic effects | −9% | −13% | −66% | decreased | decreased | – | –
CCCCNc1cc(C(=O)OCC(=O)N(CC)CC)cc(S(N)(=O)=O)c1Oc1ccccc1 [NTP-2006, N,N-Diethylaminocarbonylmethyl 3-Aminosulfonyl-5-butylamino-4-phenoxybenzoate] | 40.0% | 61% | 60% | show anti-inflammatory and analgesic effects | −40% | −61% | −60% | decreased | decreased | – | inhibition at 10 µM (Na+K+Cl− co-transporter; read-out: % Inhibition of Control Values): 50%; remaining activity at 10 µM (Na+K+Cl− co-transporter; read-out: % of Control Value): 49.6%; Concentration of NTP-2006 in rat brain ([1]; 15 m): 5.259 ng/mL and 2.937 ng/mL; Concentration of NTP-2006 in rat brain ([1]; 6 h): 1.523 ng/mL and 1.572 ng/mL; concentration at 15 min ([1]; rat, brain, intraperitoneal, 100 mg/kg, 15 m): 2.95 ng/mL; concentration at 6 h ([1]; rat, brain, intraperitoneal, 100 mg/kg, 6 h): 1.88 ng/mL; Concentration of NTP-2006 in rat blood ([2]; NTP-2006 100 mg/kg IP, PBx pretreated, 15 m): 2.008 ng/mL and 1.728 ng/mL; Concentration of NTP-2006 in rat blood ([2]; NTP-2006 100 mg/kg IP, PBx pretreated, 1 h): BLQ (Below Limit of Quantitation (<1 ng/ml)); Concentration of NTP-2006 in rat blood ([2]; NTP-2006 100 mg/kg IP, PBx pretreated, 2 h): BLQ (Below Limit of Quantitation (<1 ng/ml)); Concentration of NTP-2006 in rat blood ([2]; NTP-2006 100 mg/kg IP, PBx pretreated, 4 h): BLQ (Below Limit of Quantitation (<1 ng/ml)); Concentration of NTP-2006 in rat blood ([2]; NTP-2006 100 mg/kg IP, PBx pretreated, 6 h): BLQ (Below Limit of Quantitation (<1 ng/ml)); Degradation to bumetanide in the blood ([2]; i.p., rats): degrades into bumetanide; concentration at 15 min ([2]; rat, whole blood, intraperitoneal, 100 mg/kg, NTP-2006 100 mg/kg IP, PBx pretreated, 15 m): 3.32 ng/mL; concentration at 30 min ([2]; rat, whole blood, intraperitoneal, 100 mg/kg, NTP-2006 100 mg/kg IP, PBx pretreated, 30 m): 3.35 ng/mL
CN1C(=O)CC(=O)N(c2ccccc2)c2cc(Cl)ccc21 [clobazam] | – | – | – | – | – | – | – | – | – | increase both the amplitude and time course of inhibitory currents | –
CN1C(=O)CN=C(c2ccccc2)c2cc(Cl)ccc21 [diazepam] | – | – | – | – | – | – | – | – | – | increase both the amplitude and time course of inhibitory currents | –
Cc1ccc(-c2nc3ccc(C)cn3c2CC(=O)N(C)C)cc1 [zolpidem] | – | – | – | – | – | – | – | – | – | increase both the amplitude and time course of inhibitory currents | –
